Assay results reported in patent US11149047B2, “Aryl imidazoles for treatment of cancer” (Aptose Biosciences Inc., priority 2017, dated 2021).

Key:
[1] = tested on: protein levels in MV4-11 cells; assay: Reverse-phase protein array (RPPA) analysis; assay type: cell-based; settings: 500 nmol/L, 6 h vs vehicle
Procedure: MV4-11 cells were treated as for RNA sequencing (RNA-seq) analysis and whole-cell extracts were prepared for Western blotting. Samples were processed at MD Anderson Cancer Center reverse-phase protein array (RPPA) core facility (details at https://www.mdanderson.org/research/research-resources/core-facilities/functional-proteomics-rppa-core/rppa-process.html). Protein expression levels were averaged for 3 replicates and heatmaps were drawn using GraphPad Prism 7.
To examine the effect of COMPOUND I on protein expression, MV4-11 cells were treated as above and analyzed by RPPA microarray to quantify >300 total and post-translationally modified proteins. […] Of note, there was an increase of cleaved caspase-7, which is indicative of apoptosis. GO analysis of the differentially expressed proteins was performed utilizing the Broad Molecular Signatures database. Significant GO terms included cell death and G1-S cell-cycle arrest pathways, a formal description of G0-G1 arrest, and consistent with the cell-cycle effects detected by flow cytometry and the RNA-seq analyses (FIG. 18C). An increase in E2F1, TP53, γH2AX, CHEK1 phos-S296, and CHEK2 phos-T68 supported the concept that DNA damage pathways are triggered by COMPOUND I treatment. In addition, increases in XBP1, HSPA5, and MAPK14 (p38) phos-T180/182 were observed, indicating ER or cellular stress ([…]; ref 15). DDR pathways can also signal through the MAPK pathway activating MAPK14 and MAPK8 (JNK), and cross-talk between the DDR pathway and ER stress is a well-established phenomenon although it is unclear which pathway represents the initiating event. A significant portion of the differentially expressed proteins and mRNAs are target genes of MYC oncoprotein, which is known to be an integral part of both cell-cycle and apoptotic pathway regulation.

KG-1 AML cells = assay: Uptake and efflux assay by mass spectrometry; assay type: in vitro ADME; settings: exposed 1 or 6 hours, then drug-free media
Procedure: Cells exposed to COMPOUND I were homogenized in acetonitrile containing 5 ng of deuterated COMPOUND I standard. Samples were analyzed at the UCSD Molecular Mass Spectrometry Facility employing an Agilent 1260 liquid chromatograph (LC) system coupled with a Thermo LCQdeca mass spectrometer using positive ion mode electrospray ionization as the ion source.
Measurement of the kinetics of uptake and efflux of COMPOUND I in KG-1 AML cells determined by mass spectrometry indicated a gradual approach to steady state and a rapid initial efflux, but a very prolonged terminal efflux (FIGS. 20A and 20B). When KG-1 cells were exposed to COMPOUND I for either 1 or 6 hours and then placed in drug-free media, the efflux pattern consisted of a rapid phase occurring during the first 30 minutes followed by a prolonged terminal phase, such that significant amounts of COMPOUND I were retained in KG-1 cells for longer than 24 hours. […] (FIGS. 20C and 20D).

[2] = tested on: G4 sequences (telomere, MYC, KIT, rRNA oligos); assay: Modified FRET assay, melting of G-quadruplex oligos; assay type: binding, human; settings: FIG. 13C; COMPOUND I data at 6-hour incubation
Procedure: (§1) FRET assay and data analysis was performed as described previously and modified by using dual labeled (5′ FAM-3′ BHQ1) single-stranded oligos. Melting temperature of each oligo was assessed in the presence of vehicle DMSO or escalating concentrations of COMPOUND I, Fe(COMPOUND I)3, CX-5461, or TMPyP4 using a Roche LightCycler 96 [at 37° C. for 300 seconds followed by temperature increased in […] intervals up to 91° C. (25 steps) with 300-second total incubation time at each temperature]. Drug and oligo reaction mixes were analyzed immediately or incubated for 6 hours at room temperature and then analyzed. […] COMPOUND I data are presented for 6-hour time point.
The ability of COMPOUND I (parental monomeric form of the drug) and Fe(COMPOUND I)3 to bind and stabilize G4 sequences using a modified FRET assay was evaluated (FIGS. 21 and 22). TMPyP4, a well-known G4 ligand, and CX-5461, a clinical stage molecule recently reported to have G4-binding properties, were utilized as controls to assess the specificity of COMPOUND I and Fe(COMPOUND I)3 for G4-stabilizing activity.

ds-DNA = assay: Modified FRET assay with ds-DNA hairpin oligo; assay type: binding
Procedure: as §1
To assess selectivity for G4 structures over nonspecific interactions with ds-DNA, the FRET assay was repeated with a self-complimentary oligo that forms a ds-DNA hairpin in solution. […] The lack of effect on 45 s rRNA may reflect differences in availability of COMPOUND I and/or Fe(COMPOUND I)3 into the rRNA-rich nucleolar region of the nucleus. Nevertheless, COMPOUND I clearly can stabilize G4 structures, which provides an explanation for the inhibition of the expression of MYC and other genes. […]

## Cc1[nH]c2ccc(F)cc2c1-c1nc2c3cccnc3c3ncccc3c2[nH]1 [COMPOUND I, 2-(5-fluoro-2-methyl-1H-indol-3-yl)-1H-imidazo[4,5-f][1,10]phenanthroline]
[1]
  fold change ACC_pS79: 1.302 fold
  fold change ADAR1: 1.308 fold
  fold change Bad_pS112: 1.55 fold
  fold change BiP-GRP78: 1.29 fold
  fold change CD29: 1.291 fold
  fold change Caspase-3: 2.382 fold
  fold change Caspase-7-cleaved: 1.671 fold
  fold change Chk1: 1.433 fold
  fold change Chk2_pT68: 1.312 fold
  fold change Cyclin-B1: 0.5944 fold
  fold change Cyclin-E1: 1.361 fold
  fold change DM-Histone-H3: 2.008 fold
  fold change DM-K9-Histone-H3: 2.003 fold
  fold change E2F1: 1.423 fold
  fold change Ets-1: 0.6034 fold
  fold change H2AX_pS140: 4.196 fold
  fold change Hif-1-alpha: 1.482 fold
  fold change Histone-H3: 5.083 fold
  fold change N-Ras: 1.397 fold
  fold change NDRG1_pT346: 0.4566 fold
  fold change PAI-1: 1.257 fold
  fold change PAR: 2.707 fold
  fold change PLK1: 0.4946 fold
  fold change Pdcd-1L1: 1.262 fold
  fold change Rb_pS807_S811: 0.6486 fold
  fold change S6_pS240_S244: 0.6467 fold
  fold change Syk: 1.433 fold
  fold change Ubq-Histone-H2B: 1.375 fold
  fold change XBP-1: 1.369 fold
  fold change p38_pT180_Y182: 2.022 fold
  fold change p53: 1.288 fold
KG-1 AML cells
  duration of rapid efflux phase: 30 min
  retention of significant amounts in cells: > 24 h
[2]
  stabilization of G4 sequences (ΔT1/2): time-dependent stabilization of G4 motifs, but it demonstrated the greatest propensity for stabilizing the MYC G4 sequences
ds-DNA
  interaction with dsDNA: did not interact with dsDNA
